Assay results: ChEMBL document CHEMBL1201862, “PubChem BioAssay data set” (2004)
Each block holds one molecule with its values, some of them ahead of it. Activity calls are given as the source filed them.

Key:
HEK293 = test: cells; type: functional, cell-based; settings: Homo sapiens
[1] = molecular target: Nuclear receptor subfamily 0 group B member 1 (Homo sapiens, UniProt P51843); test: Luminescence-based cell-based high throughput dose response assay for inhibitors of the orphan nuclear receptor subfamily 0, group B, member 1 (DAX1; NR0B1). [Related pubchem assays (depositor defined):AID504766, AID504790]; type: functional
[2] = molecular target: T1, Heat shock factor protein 1 (Mus musculus, UniProt P38532); test: inhibition of MG132-induced HSE-luciferase signal, confirmation, cell-based, NIH3T3, luminescence, dose retest (AID 2382); type: functional;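 note: NIH3T3 fibroblasts with HSF1-driven luciferase reporter stressed by proteasome inhibitor MG132; luminescence from HSF1-driven luciferase expression after 8 hours of MG132 stress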
T1 sequence (P38532 whole entry): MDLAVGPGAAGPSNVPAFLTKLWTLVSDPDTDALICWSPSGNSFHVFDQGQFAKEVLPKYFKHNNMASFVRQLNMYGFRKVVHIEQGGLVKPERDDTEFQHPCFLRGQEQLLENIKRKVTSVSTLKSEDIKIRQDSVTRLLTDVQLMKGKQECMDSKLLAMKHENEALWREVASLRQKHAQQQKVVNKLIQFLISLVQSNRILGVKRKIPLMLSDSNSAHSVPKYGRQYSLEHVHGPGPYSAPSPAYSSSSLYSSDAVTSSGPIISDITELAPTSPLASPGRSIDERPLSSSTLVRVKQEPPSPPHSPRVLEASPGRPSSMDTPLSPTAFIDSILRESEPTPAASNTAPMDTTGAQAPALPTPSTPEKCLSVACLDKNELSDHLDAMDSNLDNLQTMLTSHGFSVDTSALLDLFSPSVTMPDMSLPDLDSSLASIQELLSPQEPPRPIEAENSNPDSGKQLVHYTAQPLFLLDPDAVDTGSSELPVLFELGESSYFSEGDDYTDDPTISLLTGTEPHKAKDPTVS

[3] = molecular target: Luciferin 4-monooxygenase (Photinus pyralis, UniProt P08659); test: firefly luciferase enzyme inhibitors, dose response, biochemical, luminescence (AID 1891)
[4] = Luminescence Cell-Based Dose Confirmation HTS to Identify Inhibitors of Platelet Dense Granule Release. [Related pubchem assays: 1663 (Primary HTS), 1678 (Summary of Project)]; type: functional
[5] = cytotoxicity in HEK-293T cells, dose response, cytotoxicity control for TCR NF-kB inhibitor project, luminescence, T-cell screen hits (AID 489026); type: functional, cell-based;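 note: cells exposed to compound about 14 hours before the viability readout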
[6] = molecular target: T2, Microphthalmia-associated transcription factor (Homo sapiens, UniProt O75030); test: TRPM1 promoter luciferase signal decrease, dose response, MITF inhibitor project, cell-based, SK-MEL-5, cherry-picked, set 3 (AID 493073); type: functional
T2 sequence (O75030 whole entry): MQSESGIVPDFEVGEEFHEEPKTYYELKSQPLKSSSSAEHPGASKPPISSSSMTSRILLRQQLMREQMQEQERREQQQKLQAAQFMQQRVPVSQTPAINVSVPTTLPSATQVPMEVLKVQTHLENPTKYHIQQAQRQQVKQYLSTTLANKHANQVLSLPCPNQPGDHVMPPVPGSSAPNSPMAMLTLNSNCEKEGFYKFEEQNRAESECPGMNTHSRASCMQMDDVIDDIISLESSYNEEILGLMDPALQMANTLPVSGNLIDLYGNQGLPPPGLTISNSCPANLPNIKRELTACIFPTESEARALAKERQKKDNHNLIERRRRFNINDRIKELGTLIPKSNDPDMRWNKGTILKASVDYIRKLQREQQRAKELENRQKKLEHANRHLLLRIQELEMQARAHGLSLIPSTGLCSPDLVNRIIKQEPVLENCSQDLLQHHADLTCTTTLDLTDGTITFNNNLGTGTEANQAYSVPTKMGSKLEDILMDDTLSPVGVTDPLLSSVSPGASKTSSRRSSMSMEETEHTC

A-375 = test: MITF: Counter assay: A375 proliferation Measured in Cell-Based System Using Plate Reader - 2084-03_Inhibitor_Dose_DryPowder_Activity. [Related pubchem assays (depositor defined):AID488944]; type: functional; settings: Homo sapiens
[7] = Shn3 3'UTR reporter inhibitors, dose response, cell-based, Clone20 osteoblasts, firefly luciferase, cherry-picked (AID 624132); type: functional;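 note: firefly luciferase luminescence from reporter carrying the Shn3 3'UTR in osteoblasts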
[8] = HepG2 cell cytotoxicity, dose response, cytotoxicity control for Shn3 inhibitor project, CellTiter-Glo, cherry-picked (AID 624134); type: functional, cell-based
[9] = inhibitors of HIV Env-driven cell fusion, dose response, cherry-pick (AID 652057); type: functional, cell-based
[10] = CEM21 lymphoblast cell cytotoxicity, dose response, cytotoxicity control for viral fusion inhibitor project, CellTiter-Glo luminescence, cherry-picked (AID 652042); type: functional, cell-based;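 note: potency for signal decrease meaning cytotoxicity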
[11] = ZM109 Env clade C HIV-1 fusion inhibitors, dose response, HeLa effector, CEM target cells, luciferase, cherry-pick (AID 652058); type: functional, cell-based
Paired box protein Pax-8 = Paired box protein Pax-8 (Homo sapiens, UniProt Q06710); test: inhibitors of PAX8-driven TPO luciferase reporter, dose response, RMG-I cells, cherry-pick (AID 687027); type: functional, cell-based;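 note: luciferase reporter driven by Pax8 target thyroperoxidase promoter measured by SteadyGlo luminescence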
[12] = off-target signal loss in HeLa-CEM21 co-culture – HeLa F-luc CTL cells, cherry-picked, counter-screen for HIV-1 Env fusion inhibitor project, dose response (AID 652040); type: functional, cell-based;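 note: potency for signal decrease marking cytotoxic or nonspecific inhibition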
[13] = inhibitors of clade B AD8 Env fusion, dose response, cell-based, cherry-pick (AID 652062); type: functional;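 note: luciferase signal from cell-cell fusion driven by HIV-1 clade B AD8 Env; potency is for inhibitors of fusion seen as a drop in luminescence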
[14] = A549 cell cytotoxicity, dose response, cytotoxicity control, plate reader, cherry-pick, antagonist series (AID 743412); type: functional, cell-based
[15] = HepG2 cell cytotoxicity, dose response, cytotoxicity control, plate reader, cherry-pick, antagonist series (AID 743416); type: functional, cell-based
[16] = LGR2 antagonists, dose response, cell-based, HEK293, CRE-luciferase reporter, cherry pick, set 2 (AID 743343); type: functional;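 note: transfected cells were stimulated with diluted bursicon conditioned medium after compound addition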
[17] = non-specific cell cytotoxicity, dose response, cytotoxicity control for PAX8 inhibitor project, plate reader, dry powder samples (AID 743021); type: functional, cell-based
[18] = MC4R antagonists, dose response, counter-screen for LGR2 antagonist project, cell-based, plate reader, cherry pick (AID 743444); type: functional;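 note: transfected HEK 293 cells stimulated with alpha-MSH peptide; potency of inhibitors of the alpha-MSH evoked signal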
[19] = HEK293 cell cytotoxicity, dose response, cytotoxicity control, plate reader, cherry-picked samples (AID 743446); type: functional, cell-based
Hexokinase-1 = molecular target: T3, Hexokinase-1 (Homo sapiens, UniProt P19367); test: SAR analysis of small molecule inhibitors of hexokinase domain containing I (HKDC1) in the hexokinase 1 selectivity assay. [Related pubchem assays (depositor defined):AID493160, AID493190]; type: functional
T3 sequence (P19367 whole entry): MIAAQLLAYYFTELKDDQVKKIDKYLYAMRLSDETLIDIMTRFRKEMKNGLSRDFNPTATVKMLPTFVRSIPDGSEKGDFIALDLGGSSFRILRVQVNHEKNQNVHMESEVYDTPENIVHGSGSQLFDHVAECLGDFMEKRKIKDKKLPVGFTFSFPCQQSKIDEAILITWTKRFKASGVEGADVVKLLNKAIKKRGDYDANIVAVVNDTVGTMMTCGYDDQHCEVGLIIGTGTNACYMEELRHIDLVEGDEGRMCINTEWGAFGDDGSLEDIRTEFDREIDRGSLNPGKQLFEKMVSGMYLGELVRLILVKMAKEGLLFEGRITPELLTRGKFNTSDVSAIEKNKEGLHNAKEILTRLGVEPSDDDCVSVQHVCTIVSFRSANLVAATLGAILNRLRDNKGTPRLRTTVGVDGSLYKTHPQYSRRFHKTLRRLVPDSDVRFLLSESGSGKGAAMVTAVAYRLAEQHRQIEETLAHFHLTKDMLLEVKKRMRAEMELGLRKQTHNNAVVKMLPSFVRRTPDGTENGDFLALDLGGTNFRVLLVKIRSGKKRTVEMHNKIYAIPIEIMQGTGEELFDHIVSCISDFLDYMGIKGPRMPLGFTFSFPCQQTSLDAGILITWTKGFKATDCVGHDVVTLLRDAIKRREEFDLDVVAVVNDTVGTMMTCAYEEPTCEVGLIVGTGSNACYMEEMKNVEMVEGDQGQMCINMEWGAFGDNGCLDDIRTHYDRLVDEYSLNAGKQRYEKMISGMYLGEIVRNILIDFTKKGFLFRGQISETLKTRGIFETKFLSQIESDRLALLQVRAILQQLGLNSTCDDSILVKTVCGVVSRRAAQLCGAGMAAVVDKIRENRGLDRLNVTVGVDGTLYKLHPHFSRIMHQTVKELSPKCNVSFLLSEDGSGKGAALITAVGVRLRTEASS

Hexokinase HKDC1 = molecular target: T4, Hexokinase HKDC1 (Homo sapiens, UniProt Q2TB90); test: SAR analysis of small molecule inhibitors of hexokinase domain containing I (HKDC1). [Related pubchem assays (depositor defined):AID493160, AID493190]; type: functional
T4 sequence (Q2TB90 whole entry): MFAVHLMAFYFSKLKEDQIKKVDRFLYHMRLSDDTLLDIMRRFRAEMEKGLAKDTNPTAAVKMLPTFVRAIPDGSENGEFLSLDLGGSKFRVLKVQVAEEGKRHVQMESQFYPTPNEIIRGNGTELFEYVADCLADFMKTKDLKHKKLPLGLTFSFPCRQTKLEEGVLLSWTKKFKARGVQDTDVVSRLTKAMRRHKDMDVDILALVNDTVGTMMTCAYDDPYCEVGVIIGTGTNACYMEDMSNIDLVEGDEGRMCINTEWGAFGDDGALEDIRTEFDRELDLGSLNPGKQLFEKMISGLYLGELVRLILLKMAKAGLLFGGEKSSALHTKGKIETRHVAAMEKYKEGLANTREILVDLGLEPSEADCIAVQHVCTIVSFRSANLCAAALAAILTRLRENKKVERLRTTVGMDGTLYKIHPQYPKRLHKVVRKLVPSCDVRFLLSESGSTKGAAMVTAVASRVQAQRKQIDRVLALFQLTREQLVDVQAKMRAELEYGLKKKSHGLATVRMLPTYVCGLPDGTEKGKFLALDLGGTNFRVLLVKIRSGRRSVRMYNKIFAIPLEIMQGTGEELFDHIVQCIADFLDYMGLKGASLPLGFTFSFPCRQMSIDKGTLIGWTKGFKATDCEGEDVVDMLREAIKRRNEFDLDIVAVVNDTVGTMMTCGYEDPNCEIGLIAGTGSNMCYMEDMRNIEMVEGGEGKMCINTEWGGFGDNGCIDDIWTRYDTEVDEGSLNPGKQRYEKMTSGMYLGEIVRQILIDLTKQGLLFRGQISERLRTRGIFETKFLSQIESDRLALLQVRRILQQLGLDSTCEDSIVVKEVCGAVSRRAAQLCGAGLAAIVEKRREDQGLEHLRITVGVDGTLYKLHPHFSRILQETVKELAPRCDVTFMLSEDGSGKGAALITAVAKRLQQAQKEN

Paired box protein Pax-8, sequence (Q06710 whole entry, the tested form may be a part): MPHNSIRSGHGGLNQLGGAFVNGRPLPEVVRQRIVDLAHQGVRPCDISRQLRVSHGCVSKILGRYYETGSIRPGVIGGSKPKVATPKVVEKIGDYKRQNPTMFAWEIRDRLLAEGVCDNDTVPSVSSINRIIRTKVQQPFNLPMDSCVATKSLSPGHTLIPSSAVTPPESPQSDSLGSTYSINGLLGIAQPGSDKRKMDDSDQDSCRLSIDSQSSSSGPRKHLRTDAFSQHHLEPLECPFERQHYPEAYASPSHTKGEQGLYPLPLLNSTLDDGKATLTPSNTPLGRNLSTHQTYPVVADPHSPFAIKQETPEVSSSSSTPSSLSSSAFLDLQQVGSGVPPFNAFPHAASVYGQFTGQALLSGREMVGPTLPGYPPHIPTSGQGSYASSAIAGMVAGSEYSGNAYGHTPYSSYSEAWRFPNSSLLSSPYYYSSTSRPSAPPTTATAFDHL
Nuclear receptor subfamily 0 group B member 1, sequence (P51843 whole entry): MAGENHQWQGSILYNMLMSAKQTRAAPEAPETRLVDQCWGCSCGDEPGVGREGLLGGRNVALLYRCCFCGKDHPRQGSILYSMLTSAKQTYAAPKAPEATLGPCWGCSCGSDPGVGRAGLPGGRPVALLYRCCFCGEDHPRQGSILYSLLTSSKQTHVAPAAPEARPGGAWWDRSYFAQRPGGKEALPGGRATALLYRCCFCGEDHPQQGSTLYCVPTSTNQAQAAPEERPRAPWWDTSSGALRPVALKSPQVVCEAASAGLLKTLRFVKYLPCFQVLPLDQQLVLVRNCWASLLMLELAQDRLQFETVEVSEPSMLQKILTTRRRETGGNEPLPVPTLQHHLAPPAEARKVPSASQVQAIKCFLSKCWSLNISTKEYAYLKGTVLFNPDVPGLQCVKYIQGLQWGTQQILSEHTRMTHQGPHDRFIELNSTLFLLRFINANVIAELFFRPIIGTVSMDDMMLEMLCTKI
Luciferin 4-monooxygenase, sequence (P08659 whole entry): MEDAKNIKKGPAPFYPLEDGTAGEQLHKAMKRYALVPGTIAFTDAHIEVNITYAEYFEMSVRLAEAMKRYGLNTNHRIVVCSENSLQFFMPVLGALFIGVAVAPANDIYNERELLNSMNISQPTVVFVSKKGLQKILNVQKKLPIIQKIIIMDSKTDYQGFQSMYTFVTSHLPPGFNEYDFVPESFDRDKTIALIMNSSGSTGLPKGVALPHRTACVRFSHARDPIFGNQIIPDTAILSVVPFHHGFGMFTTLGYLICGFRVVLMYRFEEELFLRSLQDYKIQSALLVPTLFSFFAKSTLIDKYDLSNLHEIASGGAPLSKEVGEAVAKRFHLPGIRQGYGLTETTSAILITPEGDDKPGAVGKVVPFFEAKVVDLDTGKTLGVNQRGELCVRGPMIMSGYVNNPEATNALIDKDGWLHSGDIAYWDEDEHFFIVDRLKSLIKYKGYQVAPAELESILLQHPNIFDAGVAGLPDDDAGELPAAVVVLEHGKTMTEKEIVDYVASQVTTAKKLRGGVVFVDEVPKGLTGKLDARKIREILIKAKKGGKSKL

SMILES: COc1ccccc1NC(=O)Nc1ccc2c(c1)OCCO2
IC50 (HEK293): > 67.5 µM (inactive)
IC50 [1]: > 67.5 µM (inactive)

SMILES: C=CCn1c(C)cc(C2=NN=C(NCC)SC2)c1C
EC50 [2]: < 0.16 µM (active)
EC50 [3]: 5.03 µM (active)
EC50 [4]: 2.02 µM (active)
IC50 [5]: > 80 µM (inactive)
AC50 [6]: 0.056 µM (active)
AC50 (A-375): 25.7 µM (active)
AC50 [7]: < 0.26 µM (active)
AC50 [8]: 26 µM (active)
AC50 [9]: 0.295 µM (active)
AC50 [10]: 34.7 µM (active)
AC50 [11]: 2.94 µM (active)
AC50 (Paired box protein Pax-8): 0.267 µM (active)
AC50 [12]: 0.554 µM (active)
AC50 [13]: 0.359 µM (active)
AC50 [14]: 11.7 µM (active)
AC50 [15]: 3.64 µM (active)
AC50 [16]: < 0.068 µM (active)
AC50 [17]: 8.07 µM (active)
AC50 [18]: < 0.068 µM (active)
AC50 [19]: 14.5 µM (active)

IC50 (Hexokinase-1): > 80 µM (inactive)
IC50 (Hexokinase HKDC1): > 80 µM (inactive)
SMILES: O=c1c2ccccc2nc(/C=C/c2ccc3c(c2)OCO3)n1Cc1ccccc1
